According to patent US11234941B2, “Oil-free carotenoid composition” (GAT Therapeutics S.L., priority 2017, dated 2022):

Experiments:
[1] = target: T1, glucocorticoid receptor (GR) (Homo sapiens, UniProt P04150); assay: SelectScreen cell-based GR antagonist assay (UAS-bla HEK 293T, beta-lactamase reporter, dexamethasone as agonist)
T1 construct: the UAS-driven beta-lactamase is the reporter
T1 sequence (P04150 524-777 limits assumed): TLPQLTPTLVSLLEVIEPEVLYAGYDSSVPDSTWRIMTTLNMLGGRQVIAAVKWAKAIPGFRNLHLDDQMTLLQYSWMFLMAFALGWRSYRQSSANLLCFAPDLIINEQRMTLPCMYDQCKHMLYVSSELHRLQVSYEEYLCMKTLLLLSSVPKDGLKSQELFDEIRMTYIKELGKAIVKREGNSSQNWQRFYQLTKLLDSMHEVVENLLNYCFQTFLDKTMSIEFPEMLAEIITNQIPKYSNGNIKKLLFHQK
Method: An antagonist assay for GR was performed by SelectScreen® Cell-Based Nuclear Receptor Profiling Service of Life Technologies. […] Detection method is based on a beta-lactamase reporter gene (bla) combined with a FRET-enabled substrate. The data obtained in these assays was modelled to a sigmoidal dose response curve.

[2] = Observation of precipitation and aggregates during nanoparticle preparation; conditions: after addition of the xanthophyll to the albumin solution
Method: To prepare bovine serum albumin (BSA)—astaxanthin nanoparticles, albumin (20 mg, 5 mg or 1 mg depending on the protein:carotenoid ratio) was dissolved in 1 mL deionized water and 1 mg of astaxanthin was dissolved in 0.25 mL THF. The astaxanthin solution was slowly added to the BSA solution under stirring and nitrogen atmosphere. When the addition of carotene was completed the solution was stirred at room temperature for 10 additional minutes. The organic solvent (THF) in the mixed solution was slowly removed by speed vacuum at 25° C. Distillation was completed when the total solution volume was reduced by ⅔. Finally, the nanoparticle solutions were filtered through a 0.22 μm PES membrane filter and immediately stored in the dark at 4° C.

[3] = at 10 μM, against dexamethasone

Compound	GR inhibition [1, 3]	antagonist effect on GR ([1]; against dexamethasone)	other results
CC(=C/C=C/C(C)=C/C=C/C=C(C)/C=C/C=C(\C)C=C=C1C(C)(C)C[C@H](O)C[C@@]1(C)O)/C=C/[C@@]12O[C@]1(C)C[C@@H](O)CC2(C)C [Neoxanthin, neoxanthin]	above 85%		
CC1=C(/C=C/C(C)=C/C=C/C(C)=C/C=C/C=C(C)/C=C/C=C(C)/C=C/C2=C(C)C(=O)[C@@H](O)CC2(C)C)C(C)(C)C[C@H](O)C1=O [astaxanthin, reference compound]		neither compound exercised an antagonist effect on GR	
CC1=C(/C=C/C(C)=C/C=C/C(C)=C/C=C/C=C(C)/C=C/C=C(C)/C=C/C2=C(C)CCCC2(C)C)C(C)(C)CCC1 [beta-carotene, reference compound]		neither compound exercised an antagonist effect on GR	
CC(=O)O[C@H]1CC(C)(C)C(=C=C/C(C)=C/C=C/C(C)=C/C=C/C=C(C)/C=C/C=C(\C)C(=O)/C=C2/C(C)(C)C[C@H](O)C[C@@]2(C)O)[C@](C)(O)C1 [isofucoxanthin]	80%		
CC1=C[C@H](O)CC(C)(C)[C@H]1/C=C/C(C)=C/C=C/C(C)=C/C=C/C=C(C)/C=C/C=C(C)/C=C/C1=C(C)C[C@@H](O)CC1(C)C [lutein]			inhibition at 10 µM ([1]; HEK-293T, at 10 μM, against dexamethasone): 80%
fucoxanthin	50%		concentration from which it acts as GR antagonist ([1]; against the agonist dexamethasone): 30 nM; formation of aggregates with poor solubility during nanoparticle preparation [2]: not observed
